The results in this text go back to ChEMBL document CHEMBL3102853, “Carbonic anhydrase inhibitors. Synthesis, and molecular structure of novel series N-substituted N'-(2-arylmethylthio-4-chloro-5-methylbenzenesulfonyl)guanidines and their inhibition of human cytosolic isozymes I and II and the transmembrane tumor-associated isozymes IX and XII” (Eur J Med Chem, 2014).

The term Ki denotes a measure of affinity in units of concentration, obtained from inhibition or displacement.

SMILES strings stand for the structures.

This experiment deals with Carbonic anhydrase 9 (Homo sapiens, UniProt Q16790).

Description: Inhibition of CA9 (unknown origin)

Compound `NS(=O)(=O)c1ccc2c(c1)CCC2NC(=O)c1c(F)c(F)c(F)c(F)c1F` (stereo unspecified) registered a Ki of 3.2 nM.
